Source: patent US10710996B2, “Pyrido-azaheterecydic compound and preparation method and use thereof” (SHANGHAI INSTITUTE OF MATERIA MEDICA, CHINESE ACADEMY OF …, priority 2015, dated 2020)
Several values for one entry are separate records, joined by “and”; a condition that tells them apart may be missing. Identical values can stand only once. Like-named read-outs stand apart in the source and are kept apart here.

Assays:
IGF1R = IGF1R (Homo sapiens, UniProt P08069); test: Tyrosine kinase inhibition rate (ELISA), IGF1R; assay type: biochemical; details: read-out: Inhibtion rate (%) IGF1R
ErbB4 = ErbB4 (Homo sapiens, UniProt Q15303); test: Tyrosine kinase inhibition rate (ELISA), ErbB4; assay type: biochemical; details: read-out: Inhibtion rate (%) ErbB4
ALK = ALK (Homo sapiens, UniProt Q9UM73); test: Tyrosine kinase inhibition rate (ELISA), ALK; assay type: biochemical; details: read-out: Inhibtion rate (%) ALK
EBC-1 cells = test: Inhibition of c-Met-mediated EBC-1 cell proliferation (SRB staining); assay type: cell-based; details: Homo sapiens, 72 hours treatment
Procedure, shortened: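 MET-amplified EBC-1 NSCLC cells in log phase were seeded, cultured overnight, then exposed to compound in triplicate for 72 h. Growth was measured by TCA fixation, SRB staining and OD at 515 nm. IC50 reported as a range from the initial screening concentrations; experiment repeated twice.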

PDGFR-α = PDGFR-α (Homo sapiens, UniProt P16234); test: Tyrosine kinase inhibition rate (ELISA), PDGFR-α; assay type: biochemical; details: read-out: Inhibtion rate (%) PDGFR-α
Chain of PDGFR-α (P16234 24-1089, species assumed): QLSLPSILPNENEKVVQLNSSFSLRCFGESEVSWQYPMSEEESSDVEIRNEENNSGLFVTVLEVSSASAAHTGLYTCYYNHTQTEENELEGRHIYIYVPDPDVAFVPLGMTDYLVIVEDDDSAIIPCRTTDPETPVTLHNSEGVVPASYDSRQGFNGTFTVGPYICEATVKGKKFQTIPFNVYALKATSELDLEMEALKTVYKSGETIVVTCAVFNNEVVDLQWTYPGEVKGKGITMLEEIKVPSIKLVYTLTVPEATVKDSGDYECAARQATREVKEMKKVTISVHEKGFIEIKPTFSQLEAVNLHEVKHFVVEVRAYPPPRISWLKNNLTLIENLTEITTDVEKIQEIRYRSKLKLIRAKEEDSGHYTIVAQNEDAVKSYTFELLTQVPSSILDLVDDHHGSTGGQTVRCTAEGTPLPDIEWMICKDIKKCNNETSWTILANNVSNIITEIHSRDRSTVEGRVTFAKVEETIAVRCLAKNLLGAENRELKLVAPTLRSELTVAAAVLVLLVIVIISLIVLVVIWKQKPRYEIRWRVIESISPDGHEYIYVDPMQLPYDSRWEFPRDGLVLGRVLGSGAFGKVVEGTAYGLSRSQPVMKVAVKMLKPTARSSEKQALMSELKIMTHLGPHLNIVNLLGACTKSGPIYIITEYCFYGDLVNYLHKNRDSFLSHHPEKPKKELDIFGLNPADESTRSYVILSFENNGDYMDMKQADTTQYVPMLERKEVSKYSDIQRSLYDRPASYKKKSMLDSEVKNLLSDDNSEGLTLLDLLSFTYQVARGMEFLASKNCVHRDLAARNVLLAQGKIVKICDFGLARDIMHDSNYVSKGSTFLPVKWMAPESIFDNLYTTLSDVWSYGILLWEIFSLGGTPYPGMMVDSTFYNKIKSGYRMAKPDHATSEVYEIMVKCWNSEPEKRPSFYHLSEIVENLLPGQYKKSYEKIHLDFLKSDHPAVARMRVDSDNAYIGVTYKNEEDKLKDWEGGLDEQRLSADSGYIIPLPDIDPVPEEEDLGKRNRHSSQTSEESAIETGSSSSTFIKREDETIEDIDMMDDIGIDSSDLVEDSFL

c-Src = c-Src (Homo sapiens, UniProt P12931); test: Tyrosine kinase inhibition rate (ELISA), c-Src; assay type: biochemical; details: read-out: Inhibtion rate (%) c-Src
Chain of c-Src (P12931 whole entry, species assumed): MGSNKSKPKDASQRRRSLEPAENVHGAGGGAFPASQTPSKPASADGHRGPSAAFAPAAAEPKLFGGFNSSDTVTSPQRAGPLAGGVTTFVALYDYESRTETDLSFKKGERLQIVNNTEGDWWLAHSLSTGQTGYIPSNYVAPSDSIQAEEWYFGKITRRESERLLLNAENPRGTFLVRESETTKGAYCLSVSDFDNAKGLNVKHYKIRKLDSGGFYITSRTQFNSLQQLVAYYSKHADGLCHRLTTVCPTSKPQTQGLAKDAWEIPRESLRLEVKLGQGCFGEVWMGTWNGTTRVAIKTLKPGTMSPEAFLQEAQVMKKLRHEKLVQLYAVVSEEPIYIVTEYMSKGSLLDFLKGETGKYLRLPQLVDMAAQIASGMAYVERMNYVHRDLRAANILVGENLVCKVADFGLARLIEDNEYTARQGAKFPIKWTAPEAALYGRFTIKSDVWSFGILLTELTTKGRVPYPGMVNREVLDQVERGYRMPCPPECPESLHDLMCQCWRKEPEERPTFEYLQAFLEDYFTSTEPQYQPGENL

EGFR = EGFR (Homo sapiens, UniProt P00533); test: Tyrosine kinase inhibition rate (ELISA), EGFR; assay type: biochemical; details: read-out: Inhibtion rate (%) EGFR
[1] = system: human lung cancer EBC-1 xenograft tumor; test: Growth inhibition of subcutaneous xenograft tumor of human lung cancer EBC-1 in nude mice; assay type: in vivo; details: for RTV (mean ± SD) / T/C (%) / TV (mm^3, mean ± SD) d21 / Weight (g) d21: d21
Protocol: EBC-1 cells were subcutaneously inoculated into the armpit on the right side of the nude mice in an amount of 5×10^6/mouse respectively to form xenograft tumor, which were then passaged in nude mice for three generations. Tumor tissue that was growing vigorously was cut into about 1.5 mm^3 under sterile conditions, and subcutaneously inoculated into the armpit on the right side of the nude mice, and the diameter of the xenograft tumor was measured with a vernier caliper. The diameter of the subcutaneous xenograft tumor in nude mice was measured with a vernier caliper. […] The diameter of xenograft tumor was measured twice a week and the body weight of mice was weighed during the whole experiment. The tumor volume (TV) was calculated by the following equation: TV=½×a×b^2, wherein a and b represent the length and width, respectively. The relative tumor volume (RTV) was calculated based on the measured results, and the calculation equation thereof is: RTV=Vt/V0, wherein V0 is the tumor volume measured when the mice were divided in different cages and administered (i.e., d0) and Vt is the tumor volume measured each time.

ABL = ABL (Homo sapiens, UniProt P00519); test: Tyrosine kinase inhibition rate (ELISA), ABL; assay type: biochemical; details: read-out: Inhibtion rate (%) ABL
RET = RET (Homo sapiens, UniProt P07949); test: Tyrosine kinase inhibition rate (ELISA), RET; assay type: biochemical; details: read-out: Inhibtion rate (%) RET
[2] = Pharmacokinetic test in rats; assay type: in vivo, Sprague-Dawley rats; details: rat; for bioavailability: oral, gavage 10 mg/kg vs intravenous 5 mg/kg, read-out: F (absolute bioavailability); for AUC(0-inf) / AUC(0-t) / Cmax / Tmax / half-life / clearance / Vd / MRT: mean; for Vd: read-out: Vss
Protocol: 14 male Sprague-Dawley rats, weigh 200-220 g, were randomly divided into 4 groups with 4/3 in each group. The rats were intragastrically and intravenously administered with compound 7S and 8S respectively. The compounds were dissolved in normal saline containing 5% of DMSO and solubilized with 5% of tween-80 (Tween 80), and the final concentration of the sample was 1 mg/ml.
The rats were fasted 12 h before the test, free drinking water. They were fed 2 h after administration.
gavage administration: 0.25 h, 0.5 h, 1.0 h, 2.0 h, 3.0 h, 4.0 h, 6.0 h, 8.0 h and 24 h after administration;
intravenous administration: 5 min, 0.25 h, 0.5 h, 1.0 h, 2.0 h, 4.0 h, 6.0 h, 8.0 h and 24 h after administration;
0.3 ml venous blood was collected from the retrobulbar venous plexus of rats at the above time point, and placed in a heparinized tube and centrifuged at 11000 rpm for 5 min. The plasma was separated and frozen in a refrigerator at −20° C.
The concentrations of the compounds in rat plasma were measured by LC/MS/MS.
Pharmacokinetic parameters after administration were calculated using the non-compartmental model of the Phoenix 1.3 software (Pharsight, U.S.A.).
Peak concentration Cmax and peak time Tmax were the measured values;
The area under the curve of the drug concentration vs. time AUC0-t value: calculated according to trapezoidal rule; AUC0-∞=AUC0-t+Ct/ke, Ct is the plasma concentration at the last measurable time point, ke is the elimination rate constant;
Elimination half-life t1/2=0.693/ke;
Average retention time MRT=AUMC/AUC.
Clearance rate CL=D/AUC0-∞;
Volume of distribution at steady state Vss=CL×MRT

EPH-A2 = EPH-A2 (Homo sapiens, UniProt P29317); test: Tyrosine kinase inhibition rate (ELISA), EPH-A2; assay type: biochemical; details: read-out: Inhibtion rate (%) EPH-A2
FGFR1 = FGFR1 (Homo sapiens, UniProt P11362); test: Tyrosine kinase inhibition rate (ELISA), FGFR1; assay type: biochemical
Chain of FGFR1 (P11362 22-822, species assumed): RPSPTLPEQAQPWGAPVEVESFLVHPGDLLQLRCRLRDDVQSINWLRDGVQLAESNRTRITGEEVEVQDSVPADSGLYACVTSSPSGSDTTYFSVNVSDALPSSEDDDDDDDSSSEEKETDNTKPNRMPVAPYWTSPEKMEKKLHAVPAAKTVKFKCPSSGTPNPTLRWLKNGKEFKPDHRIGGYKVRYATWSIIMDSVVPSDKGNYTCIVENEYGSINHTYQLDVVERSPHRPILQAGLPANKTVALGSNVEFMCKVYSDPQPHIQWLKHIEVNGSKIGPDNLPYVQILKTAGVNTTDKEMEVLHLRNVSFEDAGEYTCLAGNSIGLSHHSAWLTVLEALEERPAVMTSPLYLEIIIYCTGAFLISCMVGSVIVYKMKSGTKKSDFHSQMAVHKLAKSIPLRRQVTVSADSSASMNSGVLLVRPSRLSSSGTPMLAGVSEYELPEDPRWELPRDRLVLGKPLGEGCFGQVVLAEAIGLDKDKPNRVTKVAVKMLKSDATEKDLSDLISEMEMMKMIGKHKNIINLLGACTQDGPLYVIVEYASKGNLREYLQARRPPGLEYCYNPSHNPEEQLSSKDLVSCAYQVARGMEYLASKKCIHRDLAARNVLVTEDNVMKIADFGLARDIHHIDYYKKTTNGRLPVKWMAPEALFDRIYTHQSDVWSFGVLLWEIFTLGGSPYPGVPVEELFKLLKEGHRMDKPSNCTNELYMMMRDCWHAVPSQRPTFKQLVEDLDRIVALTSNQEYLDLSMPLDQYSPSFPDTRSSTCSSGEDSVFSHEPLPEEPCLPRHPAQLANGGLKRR

c-Met kinase = molecular target: T1, c-Met kinase (Homo sapiens, UniProt P08581); test: Inhibitory effect on c-Met kinase activity at molecular level (ELISA); assay type: biochemical;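 note: recombinant c-Met kinase domain with 5 µM ATP, 1 h at 37 °C, substrate phosphorylation detected by anti-phosphotyrosine PY99 ELISA at 490 nm versus DMSO negative control, ATP-free wells as blank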
T1 construct: c-Met kinase domain recombinant protein diluted with 49 μL of the reaction buffer was added
T1 sequence (P08581 1078-1345 limits assumed): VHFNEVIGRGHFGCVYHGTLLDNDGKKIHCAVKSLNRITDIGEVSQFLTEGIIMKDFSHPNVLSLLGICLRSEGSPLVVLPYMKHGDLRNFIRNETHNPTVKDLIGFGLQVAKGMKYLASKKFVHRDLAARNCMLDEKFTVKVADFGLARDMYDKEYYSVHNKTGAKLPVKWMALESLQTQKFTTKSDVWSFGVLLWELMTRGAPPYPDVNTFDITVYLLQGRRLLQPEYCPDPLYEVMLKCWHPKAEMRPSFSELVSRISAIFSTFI
Protocol: Experiment for Preliminarily Evaluating the Inhibitory Effect on the Activity of Receptor Tyrosine Kinase c-Met at Molecular Level
After discarding the liquid in the wells, the plate was washed with T-PBS (0.1% Tween-20 in PBS) in an amount of 200 μL/well three times, each for 5 minutes. The ELISA plate was dried in an oven at 37° C. for 1-2 hours. 50 μl of adenosine triphosphate (ATP) solution diluted with reaction buffer (50 mM 4-hydroxyethylpiperazine ethanesulfonic acid (HEPES) pH 7.4, 50 mM MgCl2, 0.5 mM MnCl2, 0.2 mM Na3VO4, 1 mM dithiothreitol (DTT)) to a final concentration of 5 μM was added to each well. The compounds were diluted to an appropriate concentration with DMSO (1 μL/well) or a solution containing DMSO in a corresponding concentration (negative control well), and then c-Met kinase domain recombinant protein diluted with 49 μL of the reaction buffer was added therein to initiate the reaction, with two ATP-free control wells for each test. The plate was placed in a shaker (100 rpm) at 37° C. for reacting 1 hour, and washed with T-PBS three times. Primary antibody PY99 diluent was added in an amount of 100 μL/well to allow the reaction in a shaker at 37° C. for 0.5 hour, and then the plate was washed with T-PBS three times. Then the secondary antibody horseradish peroxidase labeled goat anti-mouse IgG diluent was added in an amount of 100 μL/well, and the plate was placed in a shaker at 37° C. for reacting 0.5 hour, and then washed with T-PBS three times. 2 mg/ml of o-phenylenediamine (OPD) coloring solution (diluted with 0.1 M citric acid-sodium citrate buffer (pH=5.4) containing 0.03% H2O2) was then added at 100 μL/well and reacted at 25° C. for 1-10 min with light blocked (ultrasound was required to dissolve OPD, the coloring solution was prepared when needed). The reaction was stopped by adding 2 M of H2SO4 in an amount of 50 μL/well, and a wavelength-adjustable microplate reader SPECTRA MAX 190 was read at 490 nm.
The inhibition rate of the sample was calculated by the following equation:

PDGFR-β = PDGFR-β (Homo sapiens, UniProt P09619); test: Tyrosine kinase inhibition rate (ELISA), PDGFR-β; assay type: biochemical; details: read-out: Inhibtion rate (%) PDGFR-β
Chain of PDGFR-β (P09619 33-1106, species assumed): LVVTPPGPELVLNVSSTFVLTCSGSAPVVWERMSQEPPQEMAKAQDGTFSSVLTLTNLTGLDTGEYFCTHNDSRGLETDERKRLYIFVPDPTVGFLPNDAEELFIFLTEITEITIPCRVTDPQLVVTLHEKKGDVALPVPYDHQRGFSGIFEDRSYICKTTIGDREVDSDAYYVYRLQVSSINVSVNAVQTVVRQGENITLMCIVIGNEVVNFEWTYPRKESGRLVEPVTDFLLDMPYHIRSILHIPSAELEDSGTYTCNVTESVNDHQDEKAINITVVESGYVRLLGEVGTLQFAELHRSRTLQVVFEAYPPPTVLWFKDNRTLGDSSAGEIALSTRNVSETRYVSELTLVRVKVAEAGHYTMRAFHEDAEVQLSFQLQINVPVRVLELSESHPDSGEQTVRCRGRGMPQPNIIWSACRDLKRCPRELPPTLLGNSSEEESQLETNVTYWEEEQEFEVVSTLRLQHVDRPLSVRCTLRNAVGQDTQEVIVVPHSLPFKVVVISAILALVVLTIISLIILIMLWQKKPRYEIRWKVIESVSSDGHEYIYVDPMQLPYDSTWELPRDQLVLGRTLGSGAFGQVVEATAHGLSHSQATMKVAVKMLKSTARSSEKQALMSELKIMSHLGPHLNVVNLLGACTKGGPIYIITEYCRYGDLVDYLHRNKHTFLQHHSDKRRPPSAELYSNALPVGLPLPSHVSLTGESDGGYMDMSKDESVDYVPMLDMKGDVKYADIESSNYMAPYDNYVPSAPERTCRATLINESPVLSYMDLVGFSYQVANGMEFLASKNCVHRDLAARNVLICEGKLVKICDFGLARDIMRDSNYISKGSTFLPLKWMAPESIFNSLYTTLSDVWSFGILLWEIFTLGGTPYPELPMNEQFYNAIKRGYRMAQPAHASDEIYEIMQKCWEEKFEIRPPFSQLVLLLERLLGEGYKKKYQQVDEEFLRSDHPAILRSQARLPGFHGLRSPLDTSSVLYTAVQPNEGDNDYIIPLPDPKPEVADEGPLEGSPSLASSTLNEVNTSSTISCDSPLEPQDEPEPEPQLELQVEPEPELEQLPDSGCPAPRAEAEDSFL

Flt-1 = Flt-1 (Homo sapiens, UniProt P17948); test: Tyrosine kinase inhibition rate (ELISA), Flt-1; assay type: biochemical; details: read-out: Inhibtion rate (%) Flt-1
Chain of Flt-1 (P17948 27-1338, species assumed): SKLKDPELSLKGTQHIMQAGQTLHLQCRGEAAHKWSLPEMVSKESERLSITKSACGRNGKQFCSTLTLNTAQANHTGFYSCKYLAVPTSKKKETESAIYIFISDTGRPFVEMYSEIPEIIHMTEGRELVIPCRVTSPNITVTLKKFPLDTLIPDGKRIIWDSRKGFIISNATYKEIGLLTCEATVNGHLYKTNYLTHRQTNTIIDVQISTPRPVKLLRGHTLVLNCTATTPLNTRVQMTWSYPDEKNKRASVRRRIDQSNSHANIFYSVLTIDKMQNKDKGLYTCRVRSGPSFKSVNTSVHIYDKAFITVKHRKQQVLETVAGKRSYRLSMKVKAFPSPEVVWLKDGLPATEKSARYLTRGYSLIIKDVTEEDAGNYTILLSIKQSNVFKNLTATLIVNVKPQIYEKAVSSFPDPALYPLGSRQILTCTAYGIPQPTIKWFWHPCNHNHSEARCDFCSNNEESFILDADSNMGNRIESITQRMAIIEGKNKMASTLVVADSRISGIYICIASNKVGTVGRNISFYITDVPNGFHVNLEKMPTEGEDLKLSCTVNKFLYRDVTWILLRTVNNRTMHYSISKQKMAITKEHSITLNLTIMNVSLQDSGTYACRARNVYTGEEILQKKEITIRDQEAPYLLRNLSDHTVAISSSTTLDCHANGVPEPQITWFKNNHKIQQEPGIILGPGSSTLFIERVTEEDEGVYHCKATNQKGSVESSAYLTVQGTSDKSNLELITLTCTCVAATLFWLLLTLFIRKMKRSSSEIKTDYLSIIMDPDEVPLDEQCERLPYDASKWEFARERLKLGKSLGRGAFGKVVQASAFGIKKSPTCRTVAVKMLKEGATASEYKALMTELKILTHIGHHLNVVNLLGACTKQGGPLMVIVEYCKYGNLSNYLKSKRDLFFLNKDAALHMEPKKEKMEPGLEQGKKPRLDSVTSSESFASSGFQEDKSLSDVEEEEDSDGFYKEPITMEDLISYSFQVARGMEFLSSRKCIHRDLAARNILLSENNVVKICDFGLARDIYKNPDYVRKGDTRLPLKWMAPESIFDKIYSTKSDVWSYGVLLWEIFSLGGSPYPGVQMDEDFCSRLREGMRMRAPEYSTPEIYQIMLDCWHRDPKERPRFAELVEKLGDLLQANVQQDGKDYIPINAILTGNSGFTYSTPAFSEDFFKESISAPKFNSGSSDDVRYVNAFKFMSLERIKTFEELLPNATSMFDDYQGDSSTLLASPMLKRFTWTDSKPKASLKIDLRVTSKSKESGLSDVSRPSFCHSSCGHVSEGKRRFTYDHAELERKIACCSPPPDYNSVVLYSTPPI

[3] = 100 mg/kg oral once a day for 21 days
[4] = male, Sprague-Dawley, plasma, po, intragastric (gavage) 10 mg/kg
[5] = male, Sprague-Dawley, plasma, intravenous 5 mg/kg
[6] = male, Sprague-Dawley, plasma, iv, 5 mg/kg, intravenous 5 mg/kg, read-out: MRT
[7] = male, Sprague-Dawley, plasma, po, 10 mg/kg, intragastric (gavage) 10 mg/kg, read-out: MRT

## Nc1ncnc2c1c(-c1cccc(OCc3ccccc3)c1)cn2[C@H]1C[C@@H](CN2CCC2)C1 [AEW541, reference compound]
IGF1R
  inhibition at 1 µM: 70.9%

## CN(C)C/C=C/C(=O)Nc1cc2c(Nc3ccc(F)c(Cl)c3)ncnc2cc1O[C@H]1CCOC1 [BIBW2992, reference compound]
ErbB4
  inhibition at 1 µM: 71.1%

## O=C(Nc1ccc(F)cc1)C1(C(=O)Nc2ccc(Oc3ccnc4cc(OCCN5CCOCC5)ncc34)c(F)c2)CC1 [Compound 7S, N-(3-fluoro-4-((7-(2-morpholinoethoxy)-1,6-naphthyridin-4-yl)oxy)phenyl)-N-(4-fluorophenyl)cyclopropyl-1,1-dicarboxamide]
ALK
  inhibition at 1 µM: 21.7%
EBC-1 cells
  IC50: 10 to 100 nM
PDGFR-α
  inhibition at 1 µM: 55.6%
c-Src
  inhibition at 1 µM: 55.9%
EGFR
  inhibition at 1 µM: 8.6%
[1]; 10 mg/kg qd/21 po
  TV (mm^3, mean ± SD) d0: 128 ± 34 mm^3
  Weight (g) d0: 18.2 g
  RTV (mean ± SD): 6.09 ± 2.17
  T/C (%): 46.24%
  TV (mm^3, mean ± SD) d21: 764 ± 258 mm^3
  Weight (g) d21: 22.0 g
[1]; [3]
  tumor volume growth inhibition rate GI: 96.5%
  tumor weight inhibition rate: 86.9%
[1]; 100 mg/kg qd/21 po
  TV (mm^3, mean ± SD) d0: 128 ± 39 mm^3
  Weight (g) d0: 17.4 g
  RTV (mean ± SD): 1.26 ± 0.85
  T/C (%): 9.58% and 9.5%
  TV (mm^3, mean ± SD) d21: 181 ± 156 mm^3
  Weight (g) d21: 20.7 g
[1]; within effective dose
  safety in vivo: safe and non-toxic within effective dose
ErbB4
  inhibition at 1 µM: 6.6%
ABL
  inhibition at 1 µM: 23.3%
RET
  inhibition at 1 µM: 78.2%
IGF1R
  inhibition at 1 µM: 18.1%
[2]; male, Sprague-Dawley, plasma
  bioavailability: 51.8%
[2]; [4]
  AUC(0-inf): 16700 ng·h/mL
  AUC(0-t): 16500 ng·h/mL
  Cmax: 5450 ng/mL
  Tmax: 1.75 h
  half-life: 1.66 h
[2]; [5]
  AUC(0-inf): 16000 ng·h/mL
  AUC(0-t): 15900 ng·h/mL
  clearance: 5.23 mL/min/kg
  half-life: 1 h
  Vd: 0.346 L/kg
[2]; [6]
  MRT: 1.11 h
[2]; [7]
  MRT: 2.6 h
[2]; intragastric (gavage) 10 mg/kg, 10 mg/kg
  MRT: 2.653 h
EPH-A2
  inhibition at 1 µM: 87.9%
FGFR1; read-out: Inhibtion rate (%) FGFR1
  inhibition at 1 µM: 36.3%
c-Met kinase
  IC50: 1 to 10 nM
c-Met kinase; 1 μM, read-out: Inhibtion rate (%) c-Met
  inhibition at 1 µM: 100%
PDGFR-β
  inhibition at 1 µM: 48.7%
Flt-1
  inhibition at 1 µM: 70.3%

## O=C(Nc1ccc(F)cc1)C1(C(=O)Nc2ccc(Oc3ccnc4cc(OCCCN5CCOCC5)ncc34)c(F)c2)CC1 [Compound 8S]
EBC-1 cells
  IC50: 10 to 100 nM
[2]; male, Sprague-Dawley, plasma
  bioavailability: 38.6%
[2]; [4]
  AUC(0-inf): 6870 ng·h/mL
  AUC(0-t): 6780 ng·h/mL
  Cmax: 2060 ng/mL
  Tmax: 1.25 h
  half-life: 1.49 h
[2]; [5]
  AUC(0-inf): 8810 ng·h/mL
  AUC(0-t): 8770 ng·h/mL
  clearance: 9.58 mL/min/kg
  half-life: 1.15 h
  Vd: 0.667 L/kg
[2]; [6]
  MRT: 1.17 h
[2]; [7]
  MRT: 2.71 h
c-Met kinase
  IC50: 1 to 10 nM

## C[C@@H](Oc1cc(-c2cnn(C3CCNCC3)c2)cnc1N)c1c(Cl)ccc(F)c1Cl [PF2341066, Crizotinib, reference compound]
[1]; 50 mg/kg qd/21 po
  TV (mm^3, mean ± SD) d0: 123 ± 25 mm^3
  Weight (g) d0: 17.2 g
  RTV (mean ± SD): 0.00 ± 0.00
  T/C (%): 0.00%
  TV (mm^3, mean ± SD) d21: 0 ± 0 mm^3
  Weight (g) d21: 19.6 g

## CCN(CC)CCNC(=O)c1c(C)[nH]c(/C=C2\C(=O)Nc3ccc(F)cc32)c1C [Su11248, reference compound]
PDGFR-α
  inhibition at 1 µM: 54.8%
RET
  inhibition at 1 µM: 80.6%
PDGFR-β
  inhibition at 1 µM: 55.6%
Flt-1
  inhibition at 1 µM: 77.4%

## AZD4547 [reference compound]
FGFR1; 1 μM
  Inhibtion rate (%) FGFR1: 100%
